pEC50: −log10 of the molar value. Read-outs that look alike come from different tables or passages of the source.
Key:
Assay type in all cases: cell-based
human GcgR = human GcgR (Homo sapiens, UniProt P47871); assay: Functional cAMP activity in the presence of 1% HSA; conditions: read-out: cAMP Rel EC50, hGcgR
hGLP-1R [1] = target: T1, hGLP-1R (Homo sapiens, UniProt P43220); assay: Functional cAMP activity in the presence of 1% HSA; conditions: read-out: cAMP Rel EC50, hGLP-1R
hGLP-1R [2] = target: T1, hGLP-1R; assay: Functional cAMP activation in the presence of 0.1% casein (no HSA); conditions: read-out: Relative cAMP EC50, hGLP-1R;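 as to Relative cAMP EC50, hGIPR: intracellular cAMP rise after 30 min at 37 °C read by HTRF against a standard curve, scaled between buffer alone (0%) and top control ligand concentration (100%), four-parameter fit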;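 as to Relative cAMP EC50, hGLP-1R: intracellular cAMP rise after 30 min at 37 °C read by HTRF, normalized between buffer only (0%) and maximal control ligand (100%), four-parameter variable-slope fit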
hGIPR [3] = target: T2, hGIPR (Homo sapiens, UniProt P48546); assay: as above; conditions: read-out: Relative cAMP EC50, hGIPR;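 also: intracellular cAMP rise after 30 min at 37 °C read by HTRF against a standard curve, scaled between buffer alone (0%) and top control ligand concentration (100%), four-parameter fit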
T2 sequence (P48546 22-466): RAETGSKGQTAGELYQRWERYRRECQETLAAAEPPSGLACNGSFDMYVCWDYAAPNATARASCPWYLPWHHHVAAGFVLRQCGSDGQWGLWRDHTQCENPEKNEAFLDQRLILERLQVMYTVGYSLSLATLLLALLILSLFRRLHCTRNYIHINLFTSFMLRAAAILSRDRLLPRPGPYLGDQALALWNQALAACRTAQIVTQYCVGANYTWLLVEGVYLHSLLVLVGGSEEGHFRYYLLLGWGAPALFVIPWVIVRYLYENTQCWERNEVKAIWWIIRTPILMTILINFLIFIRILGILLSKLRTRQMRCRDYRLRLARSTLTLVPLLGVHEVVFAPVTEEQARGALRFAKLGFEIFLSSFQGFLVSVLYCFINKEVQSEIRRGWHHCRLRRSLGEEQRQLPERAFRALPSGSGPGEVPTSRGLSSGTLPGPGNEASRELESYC

hGIPR [4] = target: T2, hGIPR; assay: Functional cAMP activity in the presence of 1% HSA; conditions: read-out: cAMP Rel EC50, hGIPR
hGcgR = hGcgR (Homo sapiens, UniProt P47871); assay: Functional cAMP activation in the presence of 0.1% casein (no HSA); conditions: read-out: Relative cAMP EC50, hGcgR;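 also: intracellular cAMP rise after 30 min at 37 °C, read by HTRF against a cAMP standard curve, scaled from buffer only (0%) to maximal control ligand response (100%)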
hGcgR, sequence (P47871 26-477): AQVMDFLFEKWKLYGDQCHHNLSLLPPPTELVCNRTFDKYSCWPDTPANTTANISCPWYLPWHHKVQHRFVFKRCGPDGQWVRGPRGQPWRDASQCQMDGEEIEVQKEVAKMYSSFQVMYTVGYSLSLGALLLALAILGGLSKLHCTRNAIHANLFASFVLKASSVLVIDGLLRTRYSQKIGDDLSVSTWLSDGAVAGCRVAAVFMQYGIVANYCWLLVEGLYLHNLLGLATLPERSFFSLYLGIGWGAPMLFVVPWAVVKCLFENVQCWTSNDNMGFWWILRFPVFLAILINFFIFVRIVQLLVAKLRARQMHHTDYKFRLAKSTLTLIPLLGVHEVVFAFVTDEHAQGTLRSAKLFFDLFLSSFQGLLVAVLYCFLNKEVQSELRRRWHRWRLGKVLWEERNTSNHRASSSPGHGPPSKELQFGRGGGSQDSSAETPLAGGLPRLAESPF

[5] = in the presence of 0.1% casein (no HSA), geometric mean

human GcgR, sequence (P47871 26-477): as above
T1 sequence (P43220 24-463): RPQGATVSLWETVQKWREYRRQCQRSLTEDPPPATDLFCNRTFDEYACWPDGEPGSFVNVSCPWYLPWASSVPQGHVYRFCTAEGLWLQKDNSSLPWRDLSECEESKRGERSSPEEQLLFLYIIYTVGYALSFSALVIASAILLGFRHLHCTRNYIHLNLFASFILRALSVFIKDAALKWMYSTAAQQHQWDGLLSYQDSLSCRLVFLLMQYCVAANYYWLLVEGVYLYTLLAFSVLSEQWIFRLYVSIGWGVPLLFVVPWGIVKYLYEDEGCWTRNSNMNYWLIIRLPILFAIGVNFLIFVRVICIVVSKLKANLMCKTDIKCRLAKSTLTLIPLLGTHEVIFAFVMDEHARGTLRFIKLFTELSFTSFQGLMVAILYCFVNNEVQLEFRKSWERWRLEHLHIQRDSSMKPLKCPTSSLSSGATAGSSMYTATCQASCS

Compound: CC[C@H](C)[C@H](NC(=O)[C@H](CC(C)C)NC(=O)[C@](C)(Cc1ccc(O)cc1)NC(=O)[C@@H](CCC(=O)O)NC(=O)[C@@H](NC(=O)[C@H](Cc1ccccc1)NC(=O)[C@H](CCC(=O)O)NC(=O)C(C)(C)NC(=O)[C@H](C)NC(=O)[C@H](C)NC(=O)[C@H](CCCCNC(=O)COCCOCCNC(=O)CC[C@H](NC(=O)CCCCCCCCCCCCCCCCC(=O)O)C(=O)O)NC(=O)[C@H](CCCN)NC(=O)[C@H](CC(=O)O)NC(=O)[C@H](CC(C)C)NC(=O)[C@](C)(CC(C)C)NC(=O)[C@@H](NC(=O)[C@](C)(CO)NC(=O)[C@H](Cc1ccncc1)NC(=O)[C@H](CC(=O)O)NC(=O)[C@H](CO)NC(=O)[C@@H](NC(=O)[C@](C)(Cc1ccccc1F)NC(=O)[C@@H](NC(=O)CNC(=O)[C@H](CCC(N)=O)NC(=O)C(C)(C)NC(=O)[C@@H](N)Cc1ccc(O)cc1)[C@@H](C)O)[C@@H](C)O)[C@@H](C)CC)[C@@H](C)CC)C(=O)N[C@@H](CCC(=O)O)C(=O)NCC(=O)NCC(=O)N1CCC[C@H]1C(=O)N[C@@H](CO)C(=O)N[C@@H](CO)C(=O)NCC(=O)N[C@@H](C)C(=O)N1CCC[C@H]1C(=O)N1CCC[C@H]1C(=O)N1CCC[C@H]1C(=O)N[C@@H](CO)C(=O)NCC(=O)N[C@H](C(=O)NCC(=O)N[C@H](CCC(=O)O)C(N)=O)[C@@H](C)O [Example 723]
- pEC50 (human GcgR): 6.75
- pEC50 (hGLP-1R [1]): 7.58
- pEC50 (hGLP-1R [2]): 9.59
- pEC50 (hGIPR [3]): 10.93
- pEC50 (hGIPR [4]): 8.99
- pEC50 (hGcgR): 8.74

Compound: CC[C@H](C)[C@H](NC(=O)[C@H](Cc1ccccc1)NC(=O)[C@H](C)NC(=O)C(C)(C)NC(=O)[C@H](CCC(N)=O)NC(=O)[C@H](C)NC(=O)[C@H](CCCCNC(=O)COCCOCCNC(=O)CC[C@H](NC(=O)CCCCCCCCCCCCCCCCC(=O)O)C(=O)O)NC(=O)[C@H](CCCCN)NC(=O)[C@H](CC(=O)O)NC(=O)[C@H](CC(C)C)NC(=O)[C@](C)(CC(C)C)NC(=O)[C@H](CCC(N)=O)NC(=O)[C@H](CO)NC(=O)[C@H](Cc1ccncc1)NC(=O)[C@H](CC(=O)O)NC(=O)[C@H](CO)NC(=O)[C@@H](NC(=O)[C@H](Cc1ccccc1)NC(=O)[C@@H](NC(=O)CNC(=O)[C@H](CCC(N)=O)NC(=O)C(C)(C)NC(=O)[C@@H](N)Cc1ccc(O)cc1)[C@@H](C)O)[C@@H](C)O)C(=O)N[C@@H](CCC(=O)O)C(=O)N[C@@H](Cc1ccc(O)cc1)C(=O)N[C@@H](CC(C)C)C(=O)N[C@@H](CC(C)C)C(=O)N[C@@H](CCC(=O)O)C(=O)N[C@H](C)C(=O)NCC(=O)N1CCC[C@H]1C(=O)N[C@@H](CO)C(=O)N[C@@H](CO)C(=O)NCC(=O)N[C@@H](C)C(=O)N1CCC[C@H]1C(=O)N1CCC[C@H]1C(=O)N1CCC[C@H]1C(=O)N[C@@H](CO)C(=O)NCC(=O)N[C@H](C(N)=O)[C@@H](C)O [Example 821]
- pEC50 (human GcgR): 6.00
- pEC50 (hGLP-1R [1]): 6.44
- pEC50 (hGLP-1R [2]; [5]): 8.55
- pEC50 (hGIPR [3]; [5]): 9.82
- pEC50 (hGIPR [4]): 7.58
- pEC50 (hGcgR; [5]): 8.17

Compound: CC[C@H](C)[C@H](NC(=O)[C@H](CC(C)C)NC(=O)[C@H](Cc1ccc(O)cc1)NC(=O)[C@H](CCC(=O)O)NC(=O)[C@@H](NC(=O)[C@H](Cc1ccccc1)NC(=O)[C@H](C)NC(=O)[C@](C)(Cc1ccncc1)NC(=O)[C@H](CCC(N)=O)NC(=O)[C@H](C)NC(=O)[C@H](CCCCNC(=O)COCCOCCNC(=O)CC[C@H](NC(=O)CCCCCCCCCCCCCCCCC(=O)O)C(=O)O)NC(=O)[C@H](CCCCN)NC(=O)[C@H](CC(=O)O)NC(=O)[C@H](CC(C)C)NC(=O)[C@](C)(CC(C)C)NC(=O)[C@H](CCC(N)=O)NC(=O)[C@H](CO)NC(=O)[C@H](Cc1ccncc1)NC(=O)[C@H](CC(=O)O)NC(=O)[C@H](CO)NC(=O)[C@@H](NC(=O)[C@H](Cc1ccccc1)NC(=O)[C@@H](NC(=O)CNC(=O)[C@H](CCC(N)=O)NC(=O)C(C)(C)NC(=O)[C@@H](N)Cc1ccc(O)cc1)[C@@H](C)O)[C@@H](C)O)[C@@H](C)CC)C(=O)N[C@@H](C)C(=O)NCC(=O)NCC(=O)N1CCC[C@H]1C(=O)N[C@@H](CO)C(=O)N[C@@H](CO)C(=O)NCC(=O)N[C@@H](C)C(=O)N1CCC[C@H]1C(=O)N1CCC[C@H]1C(=O)N1CCC[C@H]1C(=O)N[C@@H](CO)C(=O)NCC(=O)N[C@@H](CO)C(N)=O [Example 827]
- pEC50 (human GcgR): 6.37
- pEC50 (hGLP-1R [1]): 7.27
- pEC50 (hGLP-1R [2]; [5]): 9.23
- pEC50 (hGIPR [3]; [5]): 9.92
- pEC50 (hGIPR [4]): 7.71
- pEC50 (hGcgR; [5]): 8.37

Compound: CC[C@H](C)[C@H](NC(=O)[C@H](CC(C)C)NC(=O)[C@H](Cc1ccc(O)cc1)NC(=O)[C@H](CCC(=O)O)NC(=O)[C@@H](NC(=O)[C@H](Cc1ccccc1)NC(=O)[C@H](C)NC(=O)[C@](C)(Cc1ccncc1)NC(=O)[C@H](CCC(N)=O)NC(=O)[C@H](C)NC(=O)[C@H](CCCCNC(=O)COCCOCCNC(=O)CC[C@H](NC(=O)CC[C@H](NC(=O)CCCCCCCCCCCCCCCCC(=O)O)C(=O)O)C(=O)O)NC(=O)[C@H](CCCCN)NC(=O)[C@H](CC(=O)O)NC(=O)[C@H](CC(C)C)NC(=O)[C@](C)(CC(C)C)NC(=O)[C@H](CCC(N)=O)NC(=O)[C@H](CO)NC(=O)[C@H](Cc1ccncc1)NC(=O)[C@H](CC(=O)O)NC(=O)[C@H](CO)NC(=O)[C@@H](NC(=O)[C@H](Cc1ccccc1)NC(=O)[C@@H](NC(=O)CNC(=O)[C@H](CCC(N)=O)NC(=O)C(C)(C)NC(=O)[C@@H](N)Cc1ccc(O)cc1)[C@@H](C)O)[C@@H](C)O)[C@@H](C)CC)C(=O)N[C@@H](C)C(=O)NCC(=O)NCC(=O)N1CCC[C@H]1C(=O)N[C@@H](CO)C(=O)N[C@@H](CO)C(=O)NCC(=O)N[C@@H](C)C(=O)N1CCC[C@H]1C(=O)N1CCC[C@H]1C(=O)N1CCC[C@H]1C(=O)N[C@@H](CO)C(=O)NCC(=O)N[C@@H](CO)C(N)=O [Example 869]
- pEC50 (human GcgR): 6.24
- pEC50 (hGLP-1R [1]): 6.94
- pEC50 (hGLP-1R [2]; [5]): 8.70
- pEC50 (hGIPR [3]; [5]): 9.85
- pEC50 (hGIPR [4]): 7.85
- pEC50 (hGcgR; [5]): 8.00

Compound: CC[C@H](C)[C@H](NC(=O)[C@H](CC(C)C)NC(=O)[C@H](Cc1ccc(O)cc1)NC(=O)[C@H](CCC(=O)O)NC(=O)[C@@H](NC(=O)[C@H](Cc1ccccc1)NC(=O)[C@H](C)NC(=O)[C@](C)(Cc1ccncc1)NC(=O)[C@H](CCC(N)=O)NC(=O)[C@H](C)NC(=O)[C@H](CCCCNC(=O)CC[C@H](NC(=O)CC[C@H](NC(=O)CCCCCCCCCCCCCCCCC(=O)O)C(=O)O)C(=O)O)NC(=O)[C@H](CCCCN)NC(=O)[C@H](CC(=O)O)NC(=O)[C@H](CC(C)C)NC(=O)[C@](C)(CC(C)C)NC(=O)[C@H](CCC(N)=O)NC(=O)[C@H](CO)NC(=O)[C@H](Cc1ccncc1)NC(=O)[C@H](CC(=O)O)NC(=O)[C@H](CO)NC(=O)[C@@H](NC(=O)[C@H](Cc1ccccc1)NC(=O)[C@@H](NC(=O)CNC(=O)[C@H](CCC(N)=O)NC(=O)C(C)(C)NC(=O)[C@@H](N)Cc1ccc(O)cc1)[C@@H](C)O)[C@@H](C)O)[C@@H](C)CC)C(=O)N[C@@H](C)C(=O)NCC(=O)NCC(=O)N1CCC[C@H]1C(=O)N[C@@H](CO)C(=O)N[C@@H](CO)C(=O)NCC(=O)N[C@@H](C)C(=O)N1CCC[C@H]1C(=O)N1CCC[C@H]1C(=O)N1CCC[C@H]1C(=O)N[C@@H](CO)C(=O)NCC(=O)N[C@@H](CO)C(N)=O [Example 870]
- pEC50 (human GcgR): 6.13
- pEC50 (hGLP-1R [1]): 7.15
- pEC50 (hGLP-1R [2]; [5]): 9.02
- pEC50 (hGIPR [3]; [5]): 10.16
- pEC50 (hGIPR [4]): 8.14
- pEC50 (hGcgR; [5]): 8.36

Compound: CC[C@H](C)[C@H](NC(=O)[C@H](CC(C)C)NC(=O)[C@H](Cc1ccc(O)cc1)NC(=O)[C@H](CCC(=O)O)NC(=O)[C@@H](NC(=O)[C@H](Cc1ccccc1)NC(=O)[C@H](CCC(=O)O)NC(=O)[C@](C)(Cc1ccncc1)NC(=O)[C@H](CCC(N)=O)NC(=O)[C@H](C)NC(=O)[C@H](CCCCNC(=O)CC[C@H](NC(=O)CC[C@H](NC(=O)CCCCCCCCCCCCCCCCC(=O)O)C(=O)O)C(=O)O)NC(=O)[C@H](CCCN)NC(=O)[C@H](CC(=O)O)NC(=O)[C@H](CC(C)C)NC(=O)[C@](C)(CC(C)C)NC(=O)[C@H](CCCN)NC(=O)[C@H](CO)NC(=O)[C@H](Cc1ccncc1)NC(=O)[C@H](CC(=O)O)NC(=O)[C@H](CO)NC(=O)[C@@H](NC(=O)[C@H](Cc1ccccc1)NC(=O)[C@@H](NC(=O)CNC(=O)[C@H](CCC(N)=O)NC(=O)C(C)(C)NC(=O)[C@@H](N)Cc1ccc(O)cc1)[C@@H](C)O)[C@@H](C)O)[C@@H](C)CC)C(=O)N[C@@H](C)C(=O)NCC(=O)NCC(=O)N1CCC[C@H]1C(=O)N[C@@H](CO)C(=O)N[C@@H](CO)C(=O)NCC(=O)N[C@@H](C)C(=O)N1CCC[C@H]1C(=O)N1CCC[C@H]1C(=O)N1CCC[C@H]1C(=O)N[C@@H](CO)C(=O)NCC(=O)N[C@@H](CO)C(=O)N[C@@H](CCC(=O)O)C(=O)N[C@@H](CCC(=O)O)C(N)=O [Example 1001]
- pEC50 (human GcgR): 5.93
- pEC50 (hGLP-1R [1]): 6.53
- pEC50 (hGLP-1R [2]; [5]): 8.34
- pEC50 (hGIPR [3]; [5]): 9.40
- pEC50 (hGIPR [4]): 7.70
- pEC50 (hGcgR; [5]): 7.65
